# ChEMBL document CHEMBL5344478, “Cytochrome bd oxidase: an emerging anti-tubercular drug target” (RSC Med Chem, 2024)
# How the values were obtained:
# [1] = system: Mycobacterium tuberculosis; experiment: Antimycobacterial activity against clinical isolate multi drug resistant Mycobacterium tuberculosis H37Rv assessed as inhibition of bacterial growth; type: functional, organism-based
# [2] = Inhibition of Mycobacterium tuberculosis H37Rv cytochrome bd oxidase with ATP synthase overexpression inverted membrane vesicles; type: cell membranes, Membrane vesicle
# [3] = system: Mycobacterium tuberculosis; experiment: Antimycobacterial activity against Mycobacterium tuberculosis Rv1305 harbouring atpE gene; type: functional
smiles,measurement,setting,value
CC(C)(C)c1ccc(CCNc2ncnc3ccsc23)cc1,IC50,[1],18.9 µM
c1ccc(CCNc2ncnc3ccccc23)cc1,IC50,[2],27 µM
NC(=O)NC(=O)c1nc(-c2cc3ccccc3o2)c(N)nc1N,MIC,[3],5 µM
CCc1nc2ccc(Cl)cn2c1C(=O)NCc1ccc(N2CCC(c3ccc(OC(F)(F)F)cc3)CC2)cc1 [TELACEBEC],MIC,[1],≤ 1 µM
